Experiments:
[1] = system: mouse AChR αR20L; details: 0.4 mM choline
[2] = system: mouse AChR αL146F
[3] = target: T1, mouse muscle-type AChR wild-type (Mus musculus, UniProt P02716+P04756+P20782); details: wt AChRs; ref Zhou et al., 1999; Grosman and Auerbach, 2000a; cited from earlier work
[4] = system: mouse AChR αD138E
[5] = system: mouse AChR αV54L
[6] = system: mouse AChR αL40A
[7] = system: mouse AChR αF137M
[8] = system: mouse AChR αV46I
[9] = system: mouse AChR αL65V
[10] = system: mouse AChR αR55A; details: 20 mM choline
[11] = system: mouse AChR αI116A
[12] = system: mouse AChR αS143T
[13] = system: mouse AChR αL146M
[14] = system: mouse AChR αL110V
[15] = system: mouse AChR αV29L
[16] = system: mouse AChR αA122L
[17] = system: mouse AChR αM144I
[18] = system: mouse AChR αM144A
[19] = system: mouse AChR αS143A
[20] = system: mouse AChR αR55W; details: 20 mM choline
[21] = system: mouse AChR αL35A
[22] = system: mouse AChR αN141V
[23] = system: mouse AChR αM144L
[24] = system: mouse AChR αN47K
[25] = system: mouse AChR αQ48A
[26] = system: mouse AChR αL56A
[27] = system: mouse AChR αN47A
[28] = system: mouse AChR αM144T
[29] = target: T1, mouse muscle-type AChR wild-type; details: wt AChR
[30] = system: mouse AChR αP120G; test: Single-channel kinetics, αP120G AChR; assay type: cell-based; details: clusters at different concentrations of ACh
[31] = system: mouse AChR αV46E; test: Single-channel kinetics, αV46E AChR; assay type: cell-based
[32] = system: mouse AChR αS126V; test: Single-channel kinetics, αS126V AChR; assay type: cell-based; details: clusters at different concentrations of ACh
[33] = system: mouse AChR αS126A; test: Single-channel kinetics, αS126A AChR; assay type: cell-based; details: clusters at different concentrations of ACh
[34] = system: mouse AChR αV46A; test: Single-channel kinetics, αV46A AChR; assay type: cell-based

T1 sequence (P04756 21-457): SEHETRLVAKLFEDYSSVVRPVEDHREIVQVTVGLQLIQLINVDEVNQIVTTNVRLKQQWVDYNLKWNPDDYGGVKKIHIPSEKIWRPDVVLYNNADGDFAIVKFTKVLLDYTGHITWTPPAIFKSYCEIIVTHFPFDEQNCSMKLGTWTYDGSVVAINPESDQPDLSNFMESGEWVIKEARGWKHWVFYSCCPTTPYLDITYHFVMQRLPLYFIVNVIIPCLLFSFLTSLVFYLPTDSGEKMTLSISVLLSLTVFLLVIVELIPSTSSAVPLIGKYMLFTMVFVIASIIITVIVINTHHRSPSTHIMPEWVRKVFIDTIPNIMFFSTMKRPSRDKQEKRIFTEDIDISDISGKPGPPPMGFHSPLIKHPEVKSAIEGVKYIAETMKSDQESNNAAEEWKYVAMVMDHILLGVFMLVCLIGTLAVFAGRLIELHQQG
T1 sequence (P09690 24-501 partner): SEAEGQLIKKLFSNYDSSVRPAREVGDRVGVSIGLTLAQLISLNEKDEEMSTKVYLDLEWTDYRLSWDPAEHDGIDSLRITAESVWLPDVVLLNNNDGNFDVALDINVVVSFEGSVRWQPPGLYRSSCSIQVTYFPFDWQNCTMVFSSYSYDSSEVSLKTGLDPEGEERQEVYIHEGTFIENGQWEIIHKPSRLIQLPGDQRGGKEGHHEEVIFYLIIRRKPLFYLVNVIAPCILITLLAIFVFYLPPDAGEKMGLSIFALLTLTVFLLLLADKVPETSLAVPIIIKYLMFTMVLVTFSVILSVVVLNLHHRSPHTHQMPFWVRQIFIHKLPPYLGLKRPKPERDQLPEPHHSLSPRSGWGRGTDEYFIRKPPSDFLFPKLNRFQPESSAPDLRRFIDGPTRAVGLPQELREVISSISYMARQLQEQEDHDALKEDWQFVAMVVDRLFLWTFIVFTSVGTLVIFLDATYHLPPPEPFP
T1 sequence (P02716 25-520): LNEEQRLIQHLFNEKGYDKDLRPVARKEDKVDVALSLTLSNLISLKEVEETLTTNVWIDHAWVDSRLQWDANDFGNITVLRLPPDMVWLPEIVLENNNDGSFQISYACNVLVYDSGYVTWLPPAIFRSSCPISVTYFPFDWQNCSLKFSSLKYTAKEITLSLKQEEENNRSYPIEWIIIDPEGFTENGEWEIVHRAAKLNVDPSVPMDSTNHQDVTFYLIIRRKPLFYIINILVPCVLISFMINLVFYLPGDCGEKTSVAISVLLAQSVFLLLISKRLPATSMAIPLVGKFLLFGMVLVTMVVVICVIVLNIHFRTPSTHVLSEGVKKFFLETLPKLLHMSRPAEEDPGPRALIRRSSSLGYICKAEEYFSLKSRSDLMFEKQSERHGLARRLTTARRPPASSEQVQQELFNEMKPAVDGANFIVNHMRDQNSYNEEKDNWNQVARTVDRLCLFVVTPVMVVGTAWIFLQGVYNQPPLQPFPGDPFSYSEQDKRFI
T1 sequence (P20782 21-493): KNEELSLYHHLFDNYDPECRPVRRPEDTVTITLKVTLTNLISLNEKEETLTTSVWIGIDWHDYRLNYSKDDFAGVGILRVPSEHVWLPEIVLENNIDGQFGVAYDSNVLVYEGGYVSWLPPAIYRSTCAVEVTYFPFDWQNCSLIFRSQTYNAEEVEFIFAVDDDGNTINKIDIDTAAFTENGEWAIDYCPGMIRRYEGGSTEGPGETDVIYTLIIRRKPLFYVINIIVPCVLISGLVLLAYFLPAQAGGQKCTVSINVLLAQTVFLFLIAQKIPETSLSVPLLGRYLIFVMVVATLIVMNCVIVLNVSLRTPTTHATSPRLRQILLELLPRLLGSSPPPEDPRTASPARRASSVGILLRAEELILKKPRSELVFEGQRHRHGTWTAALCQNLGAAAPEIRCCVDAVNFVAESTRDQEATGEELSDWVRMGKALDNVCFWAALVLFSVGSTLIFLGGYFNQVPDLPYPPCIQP

C[N+](C)(C)CCO [Choline, choline]
α2 Choline (diliganded channel-closing rate constant) [1]: 2,119
α2 Choline (diliganded channel-closing rate constant) ([2]; 0.4 mM choline): 2,234
β2 Choline (diliganded channel-opening rate constant) ([2]; 20 mM choline): 97
diliganded gating equilibrium constant, times smaller than ACh [3]: 500 times
α2 Choline (diliganded channel-closing rate constant) ([4]; 0.4 mM choline): 1,456 s^−1
β2 Choline (diliganded channel-opening rate constant) ([4]; 20 mM choline): 239 s⁻¹
α2 Choline (diliganded channel-closing rate constant) ([5]; 0.4 mM choline): 1,340
β2 Choline (diliganded channel-opening rate constant) ([5]; 20 mM choline): 124
α2 Choline (diliganded channel-closing rate constant) ([6]; 0.4 mM choline): 1,629
β2 Choline (diliganded channel-opening rate constant) ([6]; 20 mM choline): 312
α2 Choline (diliganded channel-closing rate constant) ([7]; 0.4 mM choline): 1,017 s^−1
β2 Choline (diliganded channel-opening rate constant) ([7]; 20 mM choline): 225 s⁻¹
α2 Choline (diliganded channel-closing rate constant) ([8]; 0.4 mM choline): 1,982 s^−1
β2 Choline (diliganded channel-opening rate constant) ([8]; 20 mM choline): 249 s⁻¹
α2 Choline (diliganded channel-closing rate constant) ([9]; 0.4 mM choline): 2,166
β2 Choline (diliganded channel-opening rate constant) ([9]; 20 mM choline): 124
β2 Choline (diliganded channel-opening rate constant) [10]: 164
α2 Choline (diliganded channel-closing rate constant) ([11]; 0.4 mM choline): 2,238
β2 Choline (diliganded channel-opening rate constant) ([11]; 20 mM choline): 110
α2 Choline (diliganded channel-closing rate constant) ([12]; 0.4 mM choline): 2,200
β2 Choline (diliganded channel-opening rate constant) ([12]; 20 mM choline): 118
α2 Choline (diliganded channel-closing rate constant) ([13]; 0.4 mM choline): 2,435
β2 Choline (diliganded channel-opening rate constant) ([13]; 20 mM choline): 118
α2 Choline (diliganded channel-closing rate constant) ([14]; 0.4 mM choline): 1,874
β2 Choline (diliganded channel-opening rate constant) ([14]; 20 mM choline): 70
α2 Choline (diliganded channel-closing rate constant) ([15]; 0.4 mM choline): 2,644
β2 Choline (diliganded channel-opening rate constant) ([15]; 20 mM choline): 200
α2 Choline (diliganded channel-closing rate constant) ([16]; 0.4 mM choline): 2,142
β2 Choline (diliganded channel-opening rate constant) ([16]; 20 mM choline): 358
α2 Choline (diliganded channel-closing rate constant) ([17]; 0.4 mM choline): 2,823
β2 Choline (diliganded channel-opening rate constant) ([17]; 20 mM choline): 93
α2 Choline (diliganded channel-closing rate constant) ([18]; 0.4 mM choline): 2,514
β2 Choline (diliganded channel-opening rate constant) ([18]; 20 mM choline): 64
α2 Choline (diliganded channel-closing rate constant) ([19]; 0.4 mM choline): 3,054
β2 Choline (diliganded channel-opening rate constant) ([19]; 20 mM choline): 79
β2 Choline (diliganded channel-opening rate constant) [20]: 98.2
α2 Choline (diliganded channel-closing rate constant) ([21]; 0.4 mM choline): 2,423
β2 Choline (diliganded channel-opening rate constant) ([21]; 20 mM choline): 182
α2 Choline (diliganded channel-closing rate constant) ([22]; 0.4 mM choline): 1,389 s^−1
β2 Choline (diliganded channel-opening rate constant) ([22]; 20 mM choline): 260 s⁻¹
α2 Choline (diliganded channel-closing rate constant) ([23]; 0.4 mM choline): 2,911
β2 Choline (diliganded channel-opening rate constant) ([23]; 20 mM choline): 917
α2 Choline (diliganded channel-closing rate constant) ([24]; 0.4 mM choline): 2,371 s^−1
β2 Choline (diliganded channel-opening rate constant) ([24]; 20 mM choline): 607 s⁻¹
α2 Choline (diliganded channel-closing rate constant) ([25]; 0.4 mM choline): 10,271 s^−1
β2 Choline (diliganded channel-opening rate constant) ([25]; 20 mM choline): 2,836 s^−1
α2 Choline (diliganded channel-closing rate constant) ([26]; 0.4 mM choline): 2,707
β2 Choline (diliganded channel-opening rate constant) ([26]; 20 mM choline): 217
α2 Choline (diliganded channel-closing rate constant) ([27]; 0.4 mM choline): 1,450 s^−1
β2 Choline (diliganded channel-opening rate constant) ([27]; 20 mM choline): 933 s⁻¹
α2 Choline (diliganded channel-closing rate constant) ([28]; 0.4 mM choline): 1,180
β2 Choline (diliganded channel-opening rate constant) ([28]; 20 mM choline): 54
α2 Choline (diliganded channel-closing rate constant) ([29]; 0.4 mM choline): 2,100 s^−1
β2 Choline (diliganded channel-opening rate constant) ([29]; 20 mM choline): 100 s⁻¹

CC(=O)OCC[N+](C)(C)C [ACh, acetylcholine]
α2 ACh (diliganded channel-closing rate constant) [30]: 2,006
β2 ACh (diliganded channel-opening rate constant) [30]: 49,531
α2 ACh (diliganded channel-closing rate constant) ([31]; low ACh): 6,613 s^−1
β2 ACh (diliganded channel-opening rate constant) ([31]; saturating ACh): 795 s⁻¹
α2 ACh (diliganded channel-closing rate constant) [32]: 1,770
β2 ACh (diliganded channel-opening rate constant) [32]: 40,253
α2 ACh (diliganded channel-closing rate constant) [33]: 2,598
β2 ACh (diliganded channel-opening rate constant) [33]: 48,918
α2 ACh (diliganded channel-closing rate constant) ([34]; low ACh): 4,135 s^−1
β2 ACh (diliganded channel-opening rate constant) ([34]; saturating ACh): 1,340 s^−1
